From article PMC5362455, “Molecularly targeted co-delivery of a histone deacetylase inhibitor and paclitaxel by lipid-protein hybrid nanoparticles for synergistic combinational chemotherapy” (Oncotarget, 2017) come the findings set out here.

Data set [1] deals with HepG2 xenograft tumor masses. Description: Histomorphometric and immunohistochemical analysis of tumor masses. As to conditions: for Tumor cell volumes: H&E, six histological fields; for Immunolabeled cell percentages: CD31 (PECAM-1) / Immunolabeled cell percentages: Caspase-3 / Immunolabeled cell percentages: Ki-67 / Immunolabeled cell percentages: PARP: tumor mass; for Caspase-3-immunolabeled cells: tumor of treated mice. The data set is classed as in vivo, BALB/c nude mice. How it is done: Xenografted tumor masses were cut and fixed in 10% neutral buffered formalin, embedded in paraffin, serially sectioned (3–4 μm), and stained with H&E prior to histopathological examinations under a light microscope (Nikon, Tokyo, Japan). The tumor cell volumes and intact tumor cell-occupied regions (%/mm^2 of tumor mass) were calculated using a computer-based automated image analyzer (iSolution FL ver 9.1, IMT i-solution Inc., Quebec, Canada).
The apoptotic markers, caspase-3, PARP, CD31, and Ki67 were investigated immunohistochemically using purified primary antibodies and biotinylated secondary antibodies, with avidin-biotin-peroxidase complex (ABC) and a peroxidase substrate kit (Vector Labs, Burlingame, CA, USA). Briefly, endogenous peroxidase activity was blocked with methanol and 0.3% H2O2 for 30 min, and non-specific immunoglobulin binding was blocked with normal horse serum blocking solution in 10 mM citrate buffer (pH 6.0). Tissue sections were incubated with primary antisera overnight at 4°C in a humidity chamber, and then incubated with biotinylated universal secondary antibodies and ABC reagents for 1 h at room temperature. Finally, sections were reacted with the peroxidase substrate kit for 3 min at room temperature. Cells were counted as immunopositive if they had > 20% immunoreactivity to the apoptotic marker (caspase-3 or PARP). The percentage region occupied by caspase-3- and PARP-positive cells within the tumor mass (%/mm^2 of tumor mass) was measured by an automated image analyzer.

In data set [2] the test system is HepG2 tumor-bearing xenograft mice. The experiment in a line: In vivo antitumor study. Also on record: species or system BALB/c nude mice. As to conditions: 5 mg/kg i.v., days 1, 4, 7, 10. As to the method: HepG2 cell-bearing xenograft mice models were developed by subcutaneously injecting 1 × 10^7 cells/100 μl into the rear flanks of 5-week-old male BALB/c nude mice (Orient Ltd. Osan, South Korea). After two weeks of initial implantation, animals were randomly divided into six groups (n = 6 per group). Respective formulations were injected at a dose of 100 μg/100 μL in 750 μg carrier by tail vein four times every 3 days. Tumors were measured twice weekly using a digital caliper and the tumor volume (V) was calculated as, V = ((width)^2 x length)/2. The animals were sacrificed after four weeks of treatment and the primary tumor was excised, weighed, and subjected to further analysis.

Data set [3] deals with red blood cells (RBC). Description: Hemolytic analysis. As to conditions: male, Sprague-Dawley, rat.
Description: The experimental protocol was approved by
the Institutional Animal Ethical Committee, Yeungnam
Briefly, the rat femoral artery
was cannulated and whole blood samples were withdrawn.
centrifugation at 3500 rpm for 10 min. The degree of
Hemolytic analysis hemolysis was determined by measuring the absorbance
of the supernatant at 540 nm.
Hemolytic toxicity was determined in a male
Sprague-Dawley rat after treatment with different

As to `CC(=O)O[C@H]1C(=O)[C@@]2(C)[C@H]([C@H](OC(=O)c3ccccc3)[C@]3(O)C[C@H](OC(=O)[C@H](O)[C@@H](NC(=O)c4ccccc4)c4ccccc4)C(C)=C1C3(C)C)[C@]1(OC(C)=O)CO[C@@H]1C[C@@H]2O` [PTX, Paclitaxel], in data set [1], the Tumor cell volumes is 53.84 ± 3.18 %/mm2 of tumor mass, the “Immunolabeled cell percentages: CD31 (PECAM-1)” value is 30.54 ± 4.09 %/mm2 of tumor mass, the “Immunolabeled cell percentages: Caspase-3” value is 30.34 ± 5.00 %/mm2 of tumor mass and the “Immunolabeled cell percentages: Ki-67” value is 44.90 ± 5.31 %/mm2 of tumor mass. For the same compound, in data set [1], the “Immunolabeled cell percentages: PARP” value was 29.59 ± 3.04 %/mm2 of tumor mass and the “Caspase-3-immunolabeled cells” value is reported as 30.34%. Besides, in data set [2], the “Tumor growth (in words)” value is reported as “slightly inhibited tumor growth”. Further, the hemolysis at 30 min, 100 µg/mL in data set [3] was approximately 25%.
As to `O=C(CCCCCCC(=O)Nc1ccccc1)NO` [VOR, Vorinostat], in data set [1], the Tumor cell volumes is listed as 60.51 ± 10.92 %/mm2 of tumor mass, the “Immunolabeled cell percentages: CD31 (PECAM-1)” value is 29.70 ± 2.52 %/mm2 of tumor mass, the “Immunolabeled cell percentages: Caspase-3” value is on record as 26.31 ± 7.48 %/mm2 of tumor mass and the “Immunolabeled cell percentages: Ki-67” value is 42.64 ± 4.65 %/mm2 of tumor mass. Also, in data set [1], the “Immunolabeled cell percentages: PARP” value is 27.64 ± 3.22 %/mm2 of tumor mass and the “Caspase-3-immunolabeled cells” value worked out at 26.31%. Further, the “Tumor growth (in words)” value in data set [2] is reported as “slightly inhibited tumor growth”. Further, in data set [3] (isolated red blood cells (RBC) suspension), the hemolysis at 30 min, 100 µg/mL is approximately 40%.
